According to patent US20240091228A1, “Uridine Phosphorylase Inhibitors to Prevent or Treat Drug-Induced Pulmonary Dysfunction” (Tosk, Inc., priority 2021, published 2024):

Tests used:
[1] = system: bleomycin-induced pulmonary fibrosis; assay: bleomycin-induced pulmonary fibrosis study in mice, lung histology (Masson's trichrome, Ashcroft grading); type: in vivo; settings: for lower fibrosis (histology score) than mice treated with the dosing vehicle / statistical significance of the fibrosis decrease vs dosing vehicle: C57BL/6 male mice, bleomycin OA day 0, 60 mg/kg IP BID days 7 through 20; for statistical significance of the fibrosis decrease vs dosing vehicle: SPSS
Source text: FIG. 2. Figure is a chart providing histology scores for pulmonary tissue from mice treated with bleomycin (a well characterized lung toxin) and either dosing vehicle, uridine, or TK-112690. Thirty-three C57BL/6 male mice, 10-14 weeks old at study initiation, were acclimatized for least 3 days. The mouse has been selected as is referenced in the literature as a representative species of choice for this experimental animal model. During acclimation and throughout the entire study duration, animals were housed within a limited access rodent facility and kept in groups of a maximum of 4 mice per cage. Mice were housed in polypropylene cages with solid bottoms and wood shavings or corn cobb as bedding material. Animals were provided ad libitum with a commercial rodent diet and had free access to drinking water that is supplied to each cage via polyethylene bottles. The automatically controlled environmental conditions was set to maintain temperature at 20-26° C. with a relative humidity (RH) of 30-70%, a 12:12 hour light: dark cycle, and 10-15 air changes/hour in the study room. Animals were given a unique animal identification tail mark as a means of identification. This number also appeared on a cage card, which was visible on the front of each cage. The cage card also contained the study and group numbers, route of administration, gender, study director, and arrival date.
Animals were randomly assigned to cages upon arrival. Animals were assigned to treatment groups prior to treatment initiation. At study termination, surviving animals were weighed prior to euthanasia. Euthanasia was performed via anesthesia overdose and exsanguination.
The Table below lists the experimental group(s) comprising the study.
Disease Induction. 75 uL of Bleomycin (section 4.5.) was administered on day 0 via oropharyngeal aspiration (OA). The mice were anesthetized via isoflurane/oxygen and suspended by their cranial incisors on a thin wire from an angled stand. The tongue was gently held from the mouth using blunt forceps to visualize the base of the tongue and the pharynx. Bleomycin/saline suspension was pipetted onto posterior pharynx. Nostrils were held gently closed, Respiration was monitored to ensure the suspension is fully aspirated.
Treatment. Groups 3 and 4 were treated via intraperitoneal (IP) injection at a dosing volume of 10 ml/kg twice daily, 6-8 hours between doses, from days 7 through 20.
Observations and Examinations. Clinical signs, humane endpoints, and palliative care were monitored, as follows: changes in skin, fur, eyes, mucus membranes, occurrence of secretions and excretions, autonomic activity, gait, posture, response to handling, abnormal behavior, tremors, convulsions, sleep and coma, labored breathing, and adventitious lung sounds.
The bleomycin administration induced a severe pulmonary inflammation resulting in lethargy, dehydration, and death of diseased animals. Animals in all diseased groups were given fresh diet gel daily beginning on Day 7 and through the remainder of the study. Body weight measurements were performed 3× weekly starting on Day 0 and throughout the rest of the study.
Termination: BALF and tissue collection. Animals were euthanized via isoflurane overdose. Following euthanasia an angiocatheter was inserted into the trachea. […]
Histology. […] Disease severity and collagen levels were assessed by the Ashcroft fibrosis grading system.
The resulting data were analyzed by SPSS, version 20.

UPase = settings: cited from earlier work
hepatic fibrosis = assay: animal model of hepatic fibrosis; type: in vivo; settings: summary statement
[2] = side effects of TK-112690
plasma uridine = plasma uridine vs plasma Compound 1 concentration after continuous sc osmotic-pump infusion to mice; type: in vivo; settings: BDF-1 male mice, constant-rate sc infusion 667, 833 or 3000 mg/kg/day
Protocol: Because uridine is cleared so rapidly, with an elimination half-life (t1/2) only a few minutes,^13 and the elimination t1/2 of Compound 1 in mice is only 1-2 hours, it is very challenging to measure uridine concentrations elevations post discrete doses of Compound I, such as used for ip dosing. For this reason, continuous infusion of Compound 1 (TK-112690) to BDF-1 t mice was administered via sc implanted osmotic pumps, and the uridine plasma concentration was measured. Solutions of Compound 1 were prepared at a concentration of 500 mg/mL in sterile PBS. Osmotic pumps (ALZET® micro-osmotic pump 2001D and 1003D, Alza Co) were loaded with 200 μL. (2001D osmotic pump) and/or 100 μL (1003D osmotic pump) of Compound 1 solution.
BDF-1 male mice (n=6) were treated with a constant-rate infusion of 667, 833 or 3000 mg/kg/day doses of Compound 1 delivered via subcutaneously implanted osmotic pumps. Animals were anesthetized with 100 mg/kg ketamine prior to pump implantation. Surgical scissors were used to make an approximately 1 cm incision on the dorsal surface near the shoulder blade of animals. A hemostat was used to carve out a subcutaneous tunnel toward the anterior end of animal. Osmotic pumps were placed inside the subcutaneous tunnel. Incision was sealed with wound clips.
Blood collections were performed on animals anesthetized with ketamine (ip 100 mg/kg). Blood samples from animals treated with a constant-rate infusion of TK-112690 were collected at 72 hours for 667 mg/kg/day and 833 mg/kg/day, and 24 hours for 3000 mg/kg/day after pump implantation. Whole blood (˜0.8 mL) was drawn through the retro-orbital sinus using a heparin coated micro-hematocrit tubes and collected into EDTA microtainer tubes. Blood samples were transferred into fresh 1.5 mL microcentrifuge tubes and centrifuged for 10 minutes at 14,000×g using an Eppendorf Minispin Plus stored in a 4° C. refrigerator. Exactly 0.4 mL of plasma was transferred into fresh microcentrifuge tubes containing 2 μL of 10 mM 5-FU and vortexed at highest setting for approximately 5 seconds. […]

[3] = system: chemotherapy-induced mucositis; assay: mitigation of chemotherapy-induced mucositis; settings: in vivo
[4] = elimination half-life of Compound 1 in mice; settings: mouse, in vivo, read-out: elimination t1/2
[5] = in vivo; cited from earlier work

SMILES: Cc1cn2c(nc1=O)O[C@H]1[C@H](O)[C@@H](CO)O[C@H]12 [TK-112690]
- lower fibrosis (histology score) than mice treated with the dosing vehicle [1]: 30%
- statistical significance of the fibrosis decrease vs dosing vehicle [1]: statistically significant
- protection in bleomycin-induced animal model of pulmonary fibrosis ([1]; summary statement): protects
- UPase inhibitor (UPase): authentic UPase inhibitor
- protection in animal model of hepatic fibrosis (hepatic fibrosis): protects
- side effects [2]: no known side effects
- effect on plasma uridine (plasma uridine): elevate plasma uridine in a linear fashion
- intercept of regression line, plasma uridine concentration vs plasma Compound 1 concentration (plasma uridine): 0.051
- slope of regression line, plasma uridine concentration vs plasma Compound 1 concentration (plasma uridine): 0.010
- efficacy as an agent to mitigate chemotherapy-induced mucositis [3]: proven efficacy
- half-life [4]: 1 to 2 h

SMILES: O=c1ccn([C@@H]2O[C@H](CO)[C@@H](O)[C@H]2O)c(=O)[nH]1 [uridine]
- lower fibrosis (histology score) than mice treated with the dosing vehicle [1]: 7%
- statistical significance of the fibrosis decrease vs dosing vehicle [1]: not statistically significant
- elimination half-life (t1/2) [5]: a few minutes
